Read-outs that look alike come from different tables or passages of the source.
What was measured:
[1] = target: T1, recombinant human ACC1 (Homo sapiens, UniProt Q13085); test: Measurement of inhibitory activity on human ACC1 (MALDI-TOF MS, acetyl CoA to malonyl CoA conversion); type: biochemical
T1 construct: a cDNA encoding human ACC1 (1-2346) was cloned from human liver cDNA library (BioChain); myc-tag (C); His-tag (C); made in house; host or cells: Sf-9 insect cells (baculovirus, FlashBACGOLD)
Text: Recombinant baculovirus was generated using FlashBACGOLD system (Oxford Expression Technologies) according to the manufacturer's protocol. To express human ACC1, Sf-9 cells were infected with recombinant baculovirus. After infected cells were disrupted, the filtrated lysate was subjected to Ni-affinity chromatography and anion-exchange chromatography. The fractions containing human ACC1 protein were pooled as recombinant human ACC1 solution.
Recombinant human ACC1 and recombinant human ACC2, which were prepared by the method mentioned above, were preincubated with assay buffer solution (50 mM HEPES-KOH (pH 7.4), 10 mM magnesium chloride, 6-10 mM potassium citrate, 4 mM reduced form of glutathione, 1.5 mg/ml bovine serum albumin) for one hour. Then, 0.2 μL of each this invention compound solution (in DMSO) were dispensed to 384-well microplate, 5 μL of the preincubated enzyme solution and 5 μL of substrate solution (50 mM HEPES-KOH (pH 7.4), 1 mM ATP, 0.8 mM acetyl CoA and 25-50 mM potassium bicarbonate) were added to microplate. After centrifugation and shaking, the reaction mixtures were incubated in a humidified box at room temperature for 1 to 3 hours. After the incubation, the enzyme reactions were stopped by the addition of EDTA. Then, after the samples were cocrystallized with CHCA (α-cyano-4-hydroxy cinnamic acid) matrices on MALDI target plate, by using the matrix assist laser […] time-of-flight mass spectrometer (MALDI-TOF MS), samples were measured in reflector negative mode. Deprotonated ions of acetyl CoA (AcCoA) of substrate and malonyl CoA (MalCoA) of the reaction product were detected, then, the conversion rates of acetyl CoA to malonyl CoA was calculated by the intensity of [MalCoA-H]-/(Intensity of [MalCoA-H]-+Intensity of [AcCoA-H]-) using each signal strength. […] In addition, potassium citrate concentrations in assay buffer solution, potassium hydrogen carbonate concentrations in substrate solution and incubation time were adjusted by each lot of enzyme.

[2] = target: T2, recombinant human ACC2 (Homo sapiens, UniProt O00763); test: Measurement of inhibitory activity on human ACC2 (MALDI-TOF MS, acetyl CoA to malonyl CoA conversion); type: biochemical
T2 construct: a cDNA encoding human ACC2 (27-2458) was cloned from human kidney cDNA library (Clontech); His-tag (N); made in house; host or cells: Sf-9 insect cells (Bac-to-Bac baculovirus)

[3] = recombinant human ACC1, MALDI-TOF MS readout, read-out: 50% inhibitory concentration (1050) on human ACCT

T2 sequence (O00763 27-2458): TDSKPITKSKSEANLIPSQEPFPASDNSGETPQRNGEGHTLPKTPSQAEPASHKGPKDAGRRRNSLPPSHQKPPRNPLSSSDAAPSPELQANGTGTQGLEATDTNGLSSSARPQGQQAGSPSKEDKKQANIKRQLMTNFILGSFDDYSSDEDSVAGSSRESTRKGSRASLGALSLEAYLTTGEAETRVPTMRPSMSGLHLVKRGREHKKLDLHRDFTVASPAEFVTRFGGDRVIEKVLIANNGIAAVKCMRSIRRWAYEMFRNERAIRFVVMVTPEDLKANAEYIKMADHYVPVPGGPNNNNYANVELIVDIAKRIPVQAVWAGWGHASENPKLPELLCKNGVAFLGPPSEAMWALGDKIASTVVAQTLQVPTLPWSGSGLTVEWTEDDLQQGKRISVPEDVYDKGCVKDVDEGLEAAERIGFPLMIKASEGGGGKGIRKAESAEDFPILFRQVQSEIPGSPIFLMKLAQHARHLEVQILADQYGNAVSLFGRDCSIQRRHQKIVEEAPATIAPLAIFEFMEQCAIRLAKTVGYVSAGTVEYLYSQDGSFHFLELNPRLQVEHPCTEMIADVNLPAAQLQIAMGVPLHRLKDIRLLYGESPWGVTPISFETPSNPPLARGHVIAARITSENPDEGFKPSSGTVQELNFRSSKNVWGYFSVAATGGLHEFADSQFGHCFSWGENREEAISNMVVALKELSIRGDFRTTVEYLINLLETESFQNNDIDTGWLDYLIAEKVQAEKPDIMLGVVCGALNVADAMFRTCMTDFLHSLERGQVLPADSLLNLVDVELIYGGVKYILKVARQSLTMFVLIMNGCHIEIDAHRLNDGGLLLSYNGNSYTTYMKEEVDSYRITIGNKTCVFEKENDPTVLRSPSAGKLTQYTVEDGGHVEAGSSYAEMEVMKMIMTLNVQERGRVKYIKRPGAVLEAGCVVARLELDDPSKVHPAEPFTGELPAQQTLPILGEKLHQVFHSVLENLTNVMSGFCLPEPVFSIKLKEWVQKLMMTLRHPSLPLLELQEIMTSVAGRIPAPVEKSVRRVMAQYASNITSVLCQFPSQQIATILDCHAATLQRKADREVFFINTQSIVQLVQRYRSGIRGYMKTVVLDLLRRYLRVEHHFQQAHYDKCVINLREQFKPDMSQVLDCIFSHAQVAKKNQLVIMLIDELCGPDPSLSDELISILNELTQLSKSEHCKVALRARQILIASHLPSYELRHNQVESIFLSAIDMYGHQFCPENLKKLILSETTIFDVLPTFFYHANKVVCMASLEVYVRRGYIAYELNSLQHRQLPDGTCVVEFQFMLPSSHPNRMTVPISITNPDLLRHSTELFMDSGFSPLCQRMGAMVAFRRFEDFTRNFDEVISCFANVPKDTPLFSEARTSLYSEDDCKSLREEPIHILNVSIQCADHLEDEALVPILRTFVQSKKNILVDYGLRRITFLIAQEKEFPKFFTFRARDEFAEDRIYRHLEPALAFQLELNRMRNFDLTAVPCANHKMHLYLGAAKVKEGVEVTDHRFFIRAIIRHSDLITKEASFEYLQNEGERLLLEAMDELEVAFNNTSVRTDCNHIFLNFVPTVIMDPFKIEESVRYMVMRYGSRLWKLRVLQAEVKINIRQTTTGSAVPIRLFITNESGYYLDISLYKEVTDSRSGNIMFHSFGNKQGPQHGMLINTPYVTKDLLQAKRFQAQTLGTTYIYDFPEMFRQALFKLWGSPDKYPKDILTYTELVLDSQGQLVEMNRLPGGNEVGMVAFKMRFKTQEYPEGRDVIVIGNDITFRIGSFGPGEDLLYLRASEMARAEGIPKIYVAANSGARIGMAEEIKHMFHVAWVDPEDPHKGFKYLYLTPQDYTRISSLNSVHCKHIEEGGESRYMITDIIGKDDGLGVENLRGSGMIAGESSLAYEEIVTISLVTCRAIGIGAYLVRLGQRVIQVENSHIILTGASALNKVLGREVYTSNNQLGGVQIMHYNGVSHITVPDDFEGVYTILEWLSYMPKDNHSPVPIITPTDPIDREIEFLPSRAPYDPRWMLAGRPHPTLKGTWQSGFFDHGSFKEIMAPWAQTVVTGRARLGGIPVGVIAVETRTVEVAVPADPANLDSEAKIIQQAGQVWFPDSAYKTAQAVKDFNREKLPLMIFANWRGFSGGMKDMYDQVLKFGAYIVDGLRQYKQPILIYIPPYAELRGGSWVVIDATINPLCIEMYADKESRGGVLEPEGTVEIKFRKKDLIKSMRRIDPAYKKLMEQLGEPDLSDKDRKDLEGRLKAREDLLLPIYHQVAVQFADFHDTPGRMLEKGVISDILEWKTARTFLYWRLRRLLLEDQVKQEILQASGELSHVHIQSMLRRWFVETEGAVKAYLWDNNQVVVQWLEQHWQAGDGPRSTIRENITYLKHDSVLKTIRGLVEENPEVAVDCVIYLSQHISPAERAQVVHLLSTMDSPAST

| IC50 [1, 3] [µM] | Compound | other results |
| --- | --- | --- |
|  | CCCc1ccc(Oc2ccc(/C=C/[C@H](C)NC(=O)CN)cn2)c(Cl)c1 [Compound I-390] | IC50 [1]: > 100 µM; IC50 [2]: 540 nM |
| > 100 | CC(=O)N[C@@H](C)/C=C/c1ccc(Oc2ccc(-c3ncns3)cc2Cl)nc1 [Compound I-420] | IC50 [2]: 120 nM |
| > 100 | CNC(=O)COc1cc(C(=O)N[C@@H](C)/C=C/c2cnc(Oc3ccc(OCC4CC4)cc3Cl)s2)ccn1 [Compound I-250] |  |
| > 100 | CC(C)NC(=O)c1cc(C(=O)N[C@@H](C)/C=C/c2cnc(Oc3ccc(OCC4CC4)cc3Cl)s2)ccn1 [Compound I-210] |  |
| > 100 | COC(=O)CCCCC(=O)N[C@@H](C)/C=C/c1cnc(Oc2ccc(OCC3CC3)cc2Cl)s1 [Compound I-130] |  |
| > 100 | CC(=O)N[C@@H](C)/C=C/c1ccc(Oc2ccc(C(C)(C)C)cc2Cl)nc1 [Compound I-300] | IC50 [2]: 18 nM |
| > 100 | C[C@@H](/C=C/c1cnc(Oc2ccc(OCC3CC3)cc2Cl)s1)NC(=O)CC(=O)OC(C)(C)C [Compound I-100] |  |
| > 100 | CC(=O)N[C@@H](C)/C=C/c1cnc(Oc2ccc(OCC3CC3)cc2Cl)s1 [Compound I-1] |  |
| > 100 | C[C@@H](/C=C/c1cnc(Oc2ccc(OCC3CC3)cc2Cl)s1)NC(=O)c1ccnc(N(C)C)c1 [Compound I-160] |  |
| > 100 | COC(=O)N[C@@H](C)/C=C/c1cnc(Oc2ccc(OCC3CC3)cc2Cl)s1 [Compound I-180] |  |
|  | CCNC(=O)c1cc(C(=O)N[C@@H](C)/C=C/c2cnn(Cc3ccc(OCC4CC4)c(Cl)c3Cl)c2)ccn1 [Compound I-320] | IC50 [1]: > 100 µM; IC50 ([2]; inhibition activity on human ACC2, Table 82, read-out: IC50): 230 nM |
|  | CCCc1ccc(Oc2ccc(/C=C/[C@H](C)NC(C)=O)cn2)c(OC)c1 [Compound I-438] | IC50 [1]: > 100 µM; IC50 ([2]; inhibition activity on human ACC2, Table 84, read-out: IC50): 780 nM |

From patent publication US20150246938A1, “NOVEL OLEFIN DERIVATIVE” (SHIONOGI & CO., LTD., priority 2011, published 2015)
